Laboratory results published in PMC12892976, “Alkylation-based optimization of antifungal FPPS inhibitors yields a potent, broad-spectrum lipophilic zoledronate derivative” (mBio, 2025).
Values after ≈ are worked out from the molar mass of the structure shown. Read-outs that look alike come from different tables or passages of the source.

How the values were obtained:
Candida albicans = assay: checkerboard drug interaction (FICI, MICc); type: cell-based;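 also: antifungal plus FPPS inhibitor combinations on Candida albicans tested by a simplified diagonal checkerboard screen, with FICI calculated under the Loewe additivity model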
Method: (§1) Drug interactions between antifungals and FPPS inhibitors were investigated using a simplified checkerboard diagonal screening method ([45]). […] FICIs were determined according to the Loewe additivity model ([17]).

Aspergillus flavus [1] = assay: checkerboard drug interaction (FICI, MICc); type: cell-based; design: INH MICc (KET:INH) / INH MICc (FLC:INH): unit not given beside the values;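 also: simplified diagonal checkerboard screen pairing azole antifungals with FPPS inhibitors, FICI calculated under the Loewe additivity model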
Aspergillus fumigatus [2] = assay: checkerboard drug interaction (FICI, MICc); type: cell-based; settings: for INH FD (MIC-MICc fold decrease): fold decrease of inhibitor MIC;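 as to all read-outs here: simplified diagonal checkerboard screen pairing antifungals with FPPS inhibitors against Aspergillus fumigatus, with FICI calculated under the Loewe additivity model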
Method: as §1

Trichophyton rubrum [3] = assay: checkerboard drug interaction (FICI, MICc); type: cell-based;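 also: simplified diagonal checkerboard screen pairing azole antifungals with FPPS inhibitors, FICI calculated under the Loewe additivity model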
Method: as §1

HEK-293T cells = assay: MTT reduction cytotoxicity assay; type: cell-based; settings: Homo sapiens
eight fungal species [4] = assay: MIC/MFC summary across the eight fungal species of Table 1; type: cell-based
Method: The antifungal activity of these compounds was evaluated according to CLSI guidelines ([16]).

eight fungal species [5] = assay: checkerboard interaction with azoles, summary across the eight species; type: cell-based
Excerpt: Synergy between lipophilic FPPS inhibitors and azole antifungals was investigated by determining the fractional inhibitory concentration index (FICI) (Fig. 2; Table S1 Fig. S1) ([17]). […]. Derivatives PLA9 and 11, and PDA9, 11, and 12 antagonized azoles in C. albicans, C. neoformans, and C. deuterogattii, yet were largely synergistic in C. glabrata and S. cerevisiae. […].

[6] = tested on: Cryptococcus deuterogattii; assay: MIC/MFC broth microdilution (CLSI);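 also: broth microdilution per CLSI M27-Ed4. MFC is the lowest concentration yielding no colonies when MIC broths are subcultured onto SDA plates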
Method: (§2) Antifungal susceptibility was determined by broth microdilution according to the CLSI guidelines described in M27-Ed4 ([16]). […] MFC was determined by back-plating drug-treated cultures from MIC broths onto SDA plates. The MFC was defined as the lowest concentration from which no colonies could be cultured.

Cryptococcus neoformans = assay: MIC/MFC broth microdilution (CLSI);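 also: susceptibility testing followed the CLSI M27-Ed4 broth microdilution document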
Method: as §2

Candida glabrata = assay: MIC/MFC broth microdilution (CLSI);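 also: broth microdilution following CLSI M27-Ed4, MFC taken as the lowest drug level yielding no growth once MIC wells were subcultured on SDA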
Method: as §2

Aspergillus flavus [7] = assay: MIC/MFC broth microdilution (CLSI); settings: ATCC204304
Method: as §2

Aspergillus fumigatus [8] = assay: MIC/MFC broth microdilution (CLSI); settings: ATCC204305
Method: as §2

Trichophyton rubrum [9] = assay: MIC/MFC broth microdilution (CLSI)
Method: as §2

Paraphyton cookei = assay: checkerboard drug interaction (FICI, MICc);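 also: simplified diagonal checkerboard screen pairing an antifungal with an FPPS inhibitor, FICI computed under the Loewe additivity model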
Method: as §1

[10] = A. fumigatus, FLC:INH combination
[11] = A. fumigatus, ITR:INH combination
[12] = A. fumigatus, KET:INH combination

## O=P(O)(O)C(O)(Cn1ccnc1)P(=O)(O)O [ZOL, zoledronate]
Candida albicans; C. albicans, KET:INH combination
  FICI: 1.13
Candida albicans; C. albicans, KET:INH combination, MIC of the inhibitor in combination with KET
  INH MICc: 32
Candida albicans; C. albicans, KET:INH combination, fold decrease of KET MIC
  KET FD (MIC-MICc fold decrease): 1
Candida albicans; C. albicans, KET:INH combination, fold decrease of inhibitor MIC
  INH FD (MIC-MICc fold decrease): 8
Candida albicans; CAS:ZOL
  FICI: 2.17
Candida albicans; FLC:ZOL
  FICI: 0.53
Candida albicans; ITR:ZOL
  FICI: 1.13
Candida albicans; KET:ZOL
  FICI: 1.13
Candida albicans; VOR:ZOL
  FICI: 1.46
Candida albicans; ZOL with 5FC
  bisphosphonate MICc: 16
Candida albicans; ZOL with AMB
  bisphosphonate MICc: 32
Candida albicans; ZOL with CAS
  bisphosphonate MICc: 32
Candida albicans; ZOL with FLC
  bisphosphonate MICc: 8
Candida albicans; ZOL with ITR
  bisphosphonate MICc: 32
Candida albicans; ZOL with KET
  bisphosphonate MICc: 32
Candida albicans; ZOL with VOR
  bisphosphonate MICc: 64
Candida albicans; with FLC, Candida albicans
  FICI: 0.53
Candida albicans; with ITR, Candida albicans
  FICI: 1.13
Candida albicans; with KET, Candida albicans
  FICI: 1.13
Aspergillus flavus [1]; 5FC:ZOL
  FICI: 2
Aspergillus flavus [1]; A. flavus, Fractional Inhibitory Concentration Index, fluconazole + inhibitor
  FICI (FLC:INH): 0.63
Aspergillus flavus [1]; A. flavus, Fractional Inhibitory Concentration Index, itraconazole + inhibitor
  FICI (ITR:INH): 1.13
Aspergillus flavus [1]; A. flavus, Fractional Inhibitory Concentration Index, ketoconazole + inhibitor
  FICI (KET:INH): 1.5
Aspergillus flavus [1]; A. flavus, MIC of the inhibitor in combination with fluconazole
  INH MICc (FLC:INH): 32
Aspergillus flavus [1]; A. flavus, MIC of the inhibitor in combination with itraconazole
  INH MICc (ITR:INH): 32
Aspergillus flavus [1]; A. flavus, MIC of the inhibitor in combination with ketoconazole
  INH MICc (KET:INH): 128
Aspergillus flavus [1]; A. flavus, MIC-MICc fold decrease of fluconazole, negative = increase
  FLC FD (FLC:INH): 2
Aspergillus flavus [1]; A. flavus, MIC-MICc fold decrease of itraconazole, negative = increase
  ITR FD (ITR:INH): 1
Aspergillus flavus [1]; A. flavus, MIC-MICc fold decrease of ketoconazole, negative = increase
  KET FD (KET:INH): 1
Aspergillus flavus [1]; A. flavus, MIC-MICc fold decrease of the inhibitor, with fluconazole
  INH FD (FLC:INH): 8
Aspergillus flavus [1]; A. flavus, MIC-MICc fold decrease of the inhibitor, with itraconazole
  INH FD (ITR:INH): 8
Aspergillus flavus [1]; A. flavus, MIC-MICc fold decrease of the inhibitor, with ketoconazole
  INH FD (KET:INH): 2
Aspergillus flavus [1]; AMB:ZOL
  FICI: 0.63
Aspergillus flavus [1]; CAS:ZOL
  FICI: 1
Aspergillus flavus [1]; FLC:ZOL
  FICI: 0.56
Aspergillus flavus [1]; ITR:ZOL
  FICI: 1.06
Aspergillus flavus [1]; KET:ZOL
  FICI: 1.25
Aspergillus flavus [1]; VOR:ZOL
  FICI: 1
Aspergillus flavus [1]; ZOL with 5FC
  bisphosphonate MICc: 512
Aspergillus flavus [1]; ZOL with AMB
  bisphosphonate MICc: 64
Aspergillus flavus [1]; ZOL with CAS
  bisphosphonate MICc: 256
Aspergillus flavus [1]; ZOL with FLC
  bisphosphonate MICc: 32
Aspergillus flavus [1]; ZOL with ITR
  bisphosphonate MICc: 32
Aspergillus flavus [1]; ZOL with KET
  bisphosphonate MICc: 128
Aspergillus flavus [1]; ZOL with VOR
  bisphosphonate MICc: 256
Aspergillus flavus [1]; with FLC, Aspergillus flavus
  FICI: 0.63
Aspergillus flavus [1]; with ITR, Aspergillus flavus
  FICI: 1.13
Aspergillus flavus [1]; with KET, Aspergillus flavus
  FICI: 1.50
Aspergillus fumigatus [2]; 5FC:ZOL
  FICI: 2
Aspergillus fumigatus [2]; [10]
  FICI: 0.75
  INH FD (MIC-MICc fold decrease): 4
Aspergillus fumigatus [2]; A. fumigatus, FLC:INH combination, MIC of FLC in combination with the inhibitor
  FLC MICc: 64
Aspergillus fumigatus [2]; A. fumigatus, FLC:INH combination, MIC of the inhibitor in combination with FLC
  INH MICc: 64
Aspergillus fumigatus [2]; A. fumigatus, FLC:INH combination, fold decrease of FLC MIC
  FLC FD (MIC-MICc fold decrease): 2
Aspergillus fumigatus [2]; [11]
  FICI: 0.51
  INH FD (MIC-MICc fold decrease): 128
Aspergillus fumigatus [2]; A. fumigatus, ITR:INH combination, MIC of ITR in combination with the inhibitor
  ITR MICc: 0.063
Aspergillus fumigatus [2]; A. fumigatus, ITR:INH combination, MIC of the inhibitor in combination with ITR
  INH MICc: 2
Aspergillus fumigatus [2]; A. fumigatus, ITR:INH combination, fold decrease of ITR MIC
  ITR FD (MIC-MICc fold decrease): 2
Aspergillus fumigatus [2]; [12]
  FICI: 0.75
  INH FD (MIC-MICc fold decrease): 4
Aspergillus fumigatus [2]; A. fumigatus, KET:INH combination, MIC of KET in combination with the inhibitor
  KET MICc: 2
Aspergillus fumigatus [2]; A. fumigatus, KET:INH combination, MIC of the inhibitor in combination with KET
  INH MICc: 64
Aspergillus fumigatus [2]; A. fumigatus, KET:INH combination, fold decrease of KET MIC
  KET FD (MIC-MICc fold decrease): 2
Aspergillus fumigatus [2]; AMB:ZOL
  FICI: 1.03
Aspergillus fumigatus [2]; CAS:ZOL
  FICI: 0.75
Aspergillus fumigatus [2]; FLC:ZOL
  FICI: 0.75
Aspergillus fumigatus [2]; ITR:ZOL
  FICI: 0.51
Aspergillus fumigatus [2]; KET:ZOL
  FICI: 0.75
Aspergillus fumigatus [2]; VOR:ZOL
  FICI: 0.75
Aspergillus fumigatus [2]; ZOL with 5FC
  bisphosphonate MICc: 512
Aspergillus fumigatus [2]; ZOL with AMB
  bisphosphonate MICc: 16
Aspergillus fumigatus [2]; ZOL with CAS
  bisphosphonate MICc: 128
Aspergillus fumigatus [2]; ZOL with FLC
  bisphosphonate MICc: 64
Aspergillus fumigatus [2]; ZOL with ITR
  bisphosphonate MICc: 2
Aspergillus fumigatus [2]; ZOL with KET
  bisphosphonate MICc: 128
Aspergillus fumigatus [2]; ZOL with VOR
  bisphosphonate MICc: 64
Aspergillus fumigatus [2]; with FLC, Aspergillus fumigatus
  FICI: 0.75
Aspergillus fumigatus [2]; with ITR, Aspergillus fumigatus
  FICI: 0.51
Aspergillus fumigatus [2]; with KET, Aspergillus fumigatus
  FICI: 0.75
Trichophyton rubrum [3]; 5FC:ZOL
  FICI: 2
Trichophyton rubrum [3]; AMB:ZOL
  FICI: ≥4
Trichophyton rubrum [3]; CAS:ZOL
  FICI: 0.5
Trichophyton rubrum [3]; FLC:ZOL
  FICI: 0.5
Trichophyton rubrum [3]; ITR:ZOL
  FICI: 0.75
Trichophyton rubrum [3]; KET:ZOL
  FICI: 0.38
Trichophyton rubrum [3]; T. rubrum, Fractional Inhibitory Concentration Index, fluconazole + inhibitor
  FICI (FLC:INH): 0.5
Trichophyton rubrum [3]; T. rubrum, Fractional Inhibitory Concentration Index, itraconazole + inhibitor
  FICI (ITR:INH): 0.75
Trichophyton rubrum [3]; T. rubrum, Fractional Inhibitory Concentration Index, ketoconazole + inhibitor
  FICI (KET:INH): 0.38
Trichophyton rubrum [3]; T. rubrum, MIC of the inhibitor in combination with fluconazole
  INH MICc (FLC:INH): 32
Trichophyton rubrum [3]; T. rubrum, MIC of the inhibitor in combination with itraconazole
  INH MICc (ITR:INH): 64
Trichophyton rubrum [3]; T. rubrum, MIC of the inhibitor in combination with ketoconazole
  INH MICc (KET:INH): 16
Trichophyton rubrum [3]; T. rubrum, MIC-MICc fold decrease of fluconazole, negative = increase
  FLC FD (FLC:INH): 4
Trichophyton rubrum [3]; T. rubrum, MIC-MICc fold decrease of itraconazole, negative = increase
  ITR FD (ITR:INH): 4
Trichophyton rubrum [3]; T. rubrum, MIC-MICc fold decrease of ketoconazole, negative = increase
  KET FD (KET:INH): 4
Trichophyton rubrum [3]; T. rubrum, MIC-MICc fold decrease of the inhibitor, with fluconazole
  INH FD (FLC:INH): 4
Trichophyton rubrum [3]; T. rubrum, MIC-MICc fold decrease of the inhibitor, with itraconazole
  INH FD (ITR:INH): 2
Trichophyton rubrum [3]; T. rubrum, MIC-MICc fold decrease of the inhibitor, with ketoconazole
  INH FD (KET:INH): 8
Trichophyton rubrum [3]; VOR:ZOL
  FICI: 0.38
Trichophyton rubrum [3]; ZOL with 5FC
  bisphosphonate MICc: 128
Trichophyton rubrum [3]; ZOL with AMB
  bisphosphonate MICc: 256
Trichophyton rubrum [3]; ZOL with CAS
  bisphosphonate MICc: 32
Trichophyton rubrum [3]; ZOL with FLC
  bisphosphonate MICc: 32
Trichophyton rubrum [3]; ZOL with ITR
  bisphosphonate MICc: 64
Trichophyton rubrum [3]; ZOL with KET
  bisphosphonate MICc: 16
Trichophyton rubrum [3]; ZOL with VOR
  bisphosphonate MICc: 16
Trichophyton rubrum [3]; with ITR, Trichophyton rubrum
  FICI: 0.75
HEK-293T cells; HEK-293T, read-out: HEK IC50
  IC50: > 256 µg/mL
HEK-293T cells; HEK-293T cells, projected value, read-out: predicted IC50
  IC50: > 256 µg/mL
Eight fungal species [4]; across eight species
  Geometric mean MFC: 181.0 µg/mL
  Geometric mean MIC: 98.7 µg/mL
Eight fungal species [4]; across eight species, read-out: Geometric mean MFC
  MFC: 181 µg/mL (≈ 665 µM)
Eight fungal species [4]; geometric mean across eight species, read-out: GM fungal MIC
  MIC: 98.7 µg/mL (≈ 363 µM)
Eight fungal species [4]; read-out: Geometric mean MIC
  MIC: 98.7 µg/mL (≈ 363 µM)
Eight fungal species [5]; across all species tested
  effect on azole MIC in combination: consistently reduced the MIC of the azole
Eight fungal species [5]; any of the azole drugs in any species tested
  antagonism with azole drugs: no antagonism
Eight fungal species [5]; geometric mean MIC in combination with azoles
  GM fungal MICc: 14.3
[6]; Cryptococcus deuterogattii
  MFC: 128 µg/mL (≈ 470 µM)
  MIC: 128 µg/mL (≈ 470 µM)
[6]; Cryptococcus deuterogattii R265
  MIC / MEC: 128 µg/mL (≈ 470 µM)
Cryptococcus neoformans; Cryptococcus neoformans
  MFC: > 128 µg/mL
  MIC: 32 µg/mL (≈ 118 µM)
Cryptococcus neoformans; Cryptococcus neoformans H99
  MIC / MEC: 32 µg/mL (≈ 118 µM)
Candida glabrata; Candida glabrata CBS138 (ATCC 2001)
  MIC / MEC: 8 µg/mL (≈ 29.4 µM)
Candida glabrata; Nakaseomyces glabratus, CBS138
  MFC: 32 µg/mL (≈ 118 µM)
  MIC: 8 µg/mL (≈ 29.4 µM)
Aspergillus flavus [7]
  MFC: > 128 µg/mL
  MIC: > 128 µg/mL
  MIC / MEC: >256 µg/mL
Aspergillus fumigatus [8]
  MFC: > 128 µg/mL
  MIC: > 128 µg/mL
  MIC / MEC: >256 µg/mL
Trichophyton rubrum [9]; Trichophyton rubrum
  MFC: > 128 µg/mL
  MIC: 128 µg/mL (≈ 470 µM)
Trichophyton rubrum [9]; Trichophyton rubrum R-218
  MIC / MEC: 128 µg/mL (≈ 470 µM)
Paraphyton cookei; 5FC:ZOL
  FICI: ≥4
Paraphyton cookei; AMB:ZOL
  FICI: 0.5
Paraphyton cookei; CAS:ZOL
  FICI: 0.63
Paraphyton cookei; FLC:ZOL
  FICI: 0.63
Paraphyton cookei; ITR:ZOL
  FICI: 0.56
Paraphyton cookei; KET:ZOL
  FICI: 0.56
Paraphyton cookei; VOR:ZOL
  FICI: 0.38
Paraphyton cookei; ZOL with 5FC
  bisphosphonate MICc: 128
Paraphyton cookei; ZOL with AMB
  bisphosphonate MICc: 32
Paraphyton cookei; ZOL with CAS
  bisphosphonate MICc: 16
Paraphyton cookei; ZOL with FLC
  bisphosphonate MICc: 16
Paraphyton cookei; ZOL with ITR
  bisphosphonate MICc: 8
Paraphyton cookei; ZOL with KET
  bisphosphonate MICc: 8
Paraphyton cookei; ZOL with VOR
  bisphosphonate MICc: 16
